Data published in US20190060391A1, “POWDER FORMULATION HAVING HY[…] HYP[…] AND METHOD FOR PREPARING THE SAME” (INFINITUS (CHINA) COMPANY LTD., priority 2017, published 2019).
Structures can show the parent of a compound that is named as a salt.

Experiments:
Body weight of rats = format: in vivo, SD rat; parameters: unit not given here; conditions: diabetic rats, positive control 170 mg/kg
Text: The rats were weighed after 1-day adaptive feed, and the rats were weighed once a week and recorded.

[1] = Organ coefficient of mice; format: in vivo, ICR mouse; conditions: alloxan mice, positive control 230 mg/kg
Description: The mice were subjected to euthanasia and dissection. Hearts, livers, spleens, lungs, kidneys and pancreases of the mice were weighed, imaged and recorded, respectively. The organ coefficients were calculated. In addition, pancreases from each group were respectively immersed into formalin-containing bottles, and the sections were sent for pathological examination.
After administration of the test sample, the hearts, livers, spleens, lungs, kidneys and pancreases of the mice in each group were weighed respectively, and organ coefficients of each group were compared.

diabetic rats [2] = assay: Fasting blood glucose and glucose tolerance in diabetic rats (high calorie feed plus alloxan); format: in vivo, SD rat; conditions: for Blood Glucose at 0 hour / Blood Glucose at 2th hour / Blood Glucose at 0.5 hour: rats, positive control 170 mg/kg
Description: (§1) Method for preparing the solution of the test sample (500 mg/kg): 2.3011 g of the test sample was precisely weighed and 46 mL of distilled water was added to prepare a solution of 0.05 g/mL, i.e., high-dose group of the test sample (500 mg/kg, 1 mL/100 g), which was equal to 30 times the recommended amount for human.
(§2) Method for preparing the solution of the test sample (170 mg/kg): 0.6970 g of the test sample was precisely weighed and 41 mL of distilled water was added to prepare a solution of 0.017 g/mL, i.e., medium-dose group of the test sample (170 mg/kg, 1 mL/100 g), which was equal to 10 times the recommended amount for human.
(§3) Method for preparing the solution of the test sample (85 mg/kg): 0.3396 g of the test sample was precisely weighed and 40 mL of distilled water was added to prepare a solution of 0.0085 g/mL, i.e., low-dose group of the test sample (85 mg/kg, 1 mL/100 g), which was equal to 5 times the recommended amount for human.
Method for preparing the positive control sample: the metformin hydrochloride tablet was milled into fine powders by a mortar, 0.9329 g powder was precisely weighed and transferred to a 100 mL-beaker. 43 mL of distilled water was added by using a 100 mL-graduated cylinder, preparing solution with a concentration of 0.017 g/mL, i.e., metformin positive control group for rat (170 mg/kg, 1 ml/100 g), which was equal to 10 times the recommended amount for human.
After 5-day of adaptive housing with normal feeding, the rats were fasted for 3 to 4 hours and blood samples were taken from the tails. The fasting blood glucose value, which was the blood glucose value before administration of glucose (0 hour), was tested. After administration of 2.5 g/kgBW glucose, the blood glucose level was tested at the 0.5 hour and the 2nd hour as the basal value of that batch of animals. The rats were divided into 6 groups according to the blood glucose value at 0 hour and the 0.5 hour, including one blank group, one positive control group, one model group and 3 dosing groups of the test sample. There were 20 rats in the high-dose group, and 18 rats in the other groups. The blank group was not treated. The positive control group was administered with metformin solution by intragastric gavage. The 3 dosing groups of the test sample were administered with test sample solutions of different concentrations by intragastric gavage. The model group was administered with the solvent of the same volume. […] Normal feeds were provided to all groups. One week later, high calorie feeds were provided to the model group, positive control group and three dosing groups of the test sample. 30 days after the feeding, the rats were fasted for 24 hours. The model group and the three dosing groups of the test sample were respectively peritoneal injected with alloxan of 200 mg/kgBW (the injection amount was […] weight) on the base of high calorie feed. The model group and 3 dosing groups of the test sample were continuously fed on high calorie feeds for 3 days. When the experiment ended, animals in each group were fasted for 3 to 4 hours, and the fasting blood glucose, glucose tolerance and area under the blood glucose curve were measured.

[3] = Organ coefficient of rats; format: in vivo, SD rat; conditions: diabetic rats, positive control 170 mg/kg
Description: The rats were subjected to euthanasia and dissection. Hearts, livers, spleens, lungs, kidneys and parts of the pancreases of the rats were weighed, imaged and recorded, respectively. The organ coefficients were calculated. In addition, pancreases from each group were respectively immersed into formalin-containing bottles.

alloxan-induced mice = assay: Fasting blood glucose and glucose tolerance in alloxan hyperglycemia model mice; format: in vivo, ICR mouse; conditions: for Blood glucose decreasing rate of the mice: positive control 230 mg/Kg; for Blood glucose of the mice: positive control 230 mg/kg
Description: as §1, §2, §3
Method for preparing the positive control sample: the metformin hydrochloride tablet was milled into fine powders by a mortar, 0.1470 g powder was precisely weighed and transferred to a 10 mL-centrifugal tube. 5 mL of distilled water was added by a pipette to prepare a solution with a concentration of 0.023 g/mL, i.e., metformin positive control group for mouse (230 mg/kg, 0.1 ml/10 g), which was equal to 13.5 times the recommended amount for human.
The administration of test sample to the rats lasted for 45 days, and the administration to mice lasted for 55 days.
After 3-day of adaptive housing with normal feeding, 15 mice were randomly chosen and subjected to fasting for 3 to 5 hours. The fasting blood glucose value was measured as the basal blood glucose value of this batch of animals. Thereafter, the mice were subjected to fasting for 24 hours (with free access to water). Except for the blank group and the negative control group, 96 mg/kg of alloxan (fresh prepared) were injected via caudal vein to establish the model, at an administration amount of 0.1 mL/10 g. 4 days later, the animals were fasted for 3 to 5 hours and the blood glucose was tested. Animals with blood glucose of 10 to 25 mmol/L were considered as hyperglycemia model animals. The fasting blood glucose value of mice was tested every two week. After the experiments, animals in each group were fasted for 3 to 4 hours, and the fasting blood glucose, glucose tolerance, blood glucose decreasing rate and the area under the blood glucose curve were tested.

diabetic rats [4] = assay: Cholesterol level and triglyceride level in serum of rats; format: in vivo, SD rat; conditions: positive control 170 mg/kg
Description: After the experiment, the rats in each group were fasted for 3 to 4 hours and peritoneal injected with pentobarbital sodium solution (1 mL/100 g) for anesthesia. 8 mL of blood was taken from the femoral artery and centrifuged at 4500 r for 6 minutes at 4° C. The serum was taken and the cholesterol level was tested by a cholesterol kit, and the triglyceride level was tested by a triglyceride kit.

Body weight of mice = format: in vivo, ICR mouse; conditions: alloxan mice, positive control 230 mg/kg
Text: The mice were weighed after 1-day adaptive feed, and the mice were weighed once a week and recorded. The administration of test sample to the rats lasted for 45 days, and the administration to mice lasted for 55 days.

CN(C)C(=N)N=C(N)N [metformin, metformin hydrochloride]
Weight changes of rats (Body weight of rats; 3 d): 207.00 ± 10.91 | Weight changes of rats (Body weight of rats; 6 d): 225.22 ± 12.01 | Weight changes of rats (Body weight of rats; 8 d): 244.28 ± 10.93 | Weight changes of rats (Body weight of rats; 12 d): 277.50 ± 8.25 | Weight changes of rats (Body weight of rats; 22 d): 325.89 ± 18.39 | Weight changes of rats (Body weight of rats; 28 d): 373.67 ± 21.40 | Weight changes of rats (Body weight of rats; 35 d): 396.22 ± 23.32 | Weight changes of rats (Body weight of rats; 42 d): 403.83 ± 21.22 | Weight changes of rats (Body weight of rats; 45 d): 361.19 ± 27.43 | Heart Coefficient [1]: 0.50 ± 0.09 | Kidney Coefficient [1]: 2.17 ± 0.61 | Liver Coefficient [1]: 4.96 ± 1.67 | Lung Coefficient [1]: 0.67 ± 0.14 | Pancreas Coefficient [1]: 0.76 ± 0.31 | Spleen Coefficient [1]: 0.47 ± 0.37 | Area under the blood glucose curve vs model group (in words) (diabetic rats [2]; diabetic rats, glucose tolerance test): showed significant differences | Effect on fasting blood glucose vs model group (in words) (diabetic rats [2]; diabetic rats, positive control group): significantly improved symptom of the hyperglycemia | Blood Glucose at 0 hour (diabetic rats [2]; 4D): 6.00 ± 0.87 | Blood Glucose at 2th hour (diabetic rats [2]; 4D): 5.75 ± 0.97 | Blood Glucose at 0.5 hour (diabetic rats [2]; 4D): 8.33 ± 1.54 | Blood Glucose at 0 hour (diabetic rats [2]; 45D): 12.05 ± 4.98 | Blood Glucose at 2th hour (diabetic rats [2]; 45D): 13.31 ± 5.83 | Blood Glucose at 0.5 hour (diabetic rats [2]; 45D): 15.98 ± 4.87 | Heart Coefficient [3]: 0.36 ± 0.06 | Kidney Coefficient [3]: 0.88 ± 0.20 | Liver Coefficient [3]: 3.36 ± 0.48 | Lung Coefficient [3]: 0.53 ± 0.15 | Pancreas Coefficient [3]: 0.37 ± 0.13 | Spleen Coefficient [3]: 0.16 ± 0.09 | Blood glucose decreasing rate of the mice (alloxan-induced mice; 45 d): −20.06% ± 0.30 | Blood glucose decreasing rate of the mice (alloxan-induced mice; 55 d): 21.60% ± 0.48 | Blood glucose of the mice (alloxan-induced mice; 0 d): 22.87 ± 3.66 mmol/L | Blood glucose of the mice (alloxan-induced mice; 16 d): 13.60 ± 4.82 mmol/L | Blood glucose of the mice (alloxan-induced mice; 30 d): 15.57 ± 5.85 mmol/L | Blood glucose of the mice (alloxan-induced mice; 45 d): 18.28 ± 5.86 mmol/L | Blood glucose of the mice (alloxan-induced mice; 55 d): 17.93 ± 10.23 mmol/L | Effect on fasting blood glucose vs model group (in words) (alloxan-induced mice; positive control group): significantly improved symptom of the hyperglycemia | Cholesterol Index (diabetic rats [4]): 3.71 ± 1.57 | Triglyceride Index (diabetic rats [4]): 9.47 ± 5.29 | Changes of body weight of mice (Body weight of mice; 1 d): 21.1 ± 2.0 g | Changes of body weight of mice (Body weight of mice; 2 d): 23.3 ± 2.3 g | Changes of body weight of mice (Body weight of mice; 6 d): 22.1 ± 3.1 g | Changes of body weight of mice (Body weight of mice; 8 d): 22.8 ± 5.8 g | Changes of body weight of mice (Body weight of mice; 11 d): 23.1 ± 4.0 g | Changes of body weight of mice (Body weight of mice; 20 d): 25.6 ± 5.4 g | Changes of body weight of mice (Body weight of mice; 27 d): 25.3 ± 4.2 g | Changes of body weight of mice (Body weight of mice; 34 d): 27.8 ± 4.1 g | Changes of body weight of mice (Body weight of mice; 41 d): 29.1 ± 4.8 g | Changes of body weight of mice (Body weight of mice; 48 d): 27.0 ± 5.4 g | Changes of body weight of mice (Body weight of mice; 55 d): 27.2 ± 5.2 g
